Test results as given in patent US20140271734A1, “BILE ACID RECYCLING INHIBITORS FOR TREATMENT OF BARRETT'S ESOPHAGUS AND GASTROESOPHAGEAL REFLUX DISEASE” (LUMENA PHARMACEUTICALS, INC., priority 2013, published 2014).

Key:
plasma bile acid = assay: Plasma bile acid concentrations in ZDF rats; assay type: in vivo
Experimental: (§1) Male Zucker diabetic fatty rats (ZDF/GmiCrl-fa/fa) were purchased from Charles River (Raleigh, N.C.) and housed under controlled conditions (12:12 light-dark cycle, 24° C. and 50% relative humidity) with free access to rodent food (Purina 5008, Harlan Teklad, Indianapolis, Ind.). All rats arrived at seven weeks of age (±3 days). After a one-week acclimation period, rats were anesthetized with isoflurane (Abbott Laboratories, IL) and tail-vein blood samples were collected at 9 am without fasting. Blood glucose levels were measured using a glucometer (Bayer, Leverkusen, Germany). In order to ensure balanced treatment groups, ZDF rats were assigned to six treatment groups based upon baseline glucose: vehicle (0.5% HPMC, 0.1% Tween80) and five doses of 264W94 (0.001, 0.01, 0.1, 1, 10 mg/kg). All treatments were given via oral gavage twice a day and animals were followed for two weeks with blood samples collected from tail vein at the end of each week at 9 am without fasting. Fecal samples were collected for 24 hours during the second week of treatment.
(§2) Non-esterified fatty acids (NEFA), bile acids, and bile acids in fecal extraction were measured using the Olympus AU640 clinical chemistry analyzer (Beckman Coulter, Irving, Tex.).
Male ZDF rats (n=4) were administered vehicle, SC-435 (1, 10 or 30 mg/kg) or LUM002 (0.3, 1, 3, 10 or 30 mg/kg) by oral gavage twice a day for 2 weeks. Plasma bile acid levels were determined at the end of the second week. […] Data are expressed as mean values±SEM.

bile acids in the feces = assay: Fecal bile acid excretion in ZDF rats after oral 264W94; assay type: in vivo, Zucker diabetic fatty rats (ZDF/GmiCrl-fa/fa)
Experimental: as §1, §2

plasma triglycerides = assay: Plasma triglycerides in ZDF rats, week 3; assay type: in vivo; settings: twice daily oral gavage, no dose-related response
[1] = tested on: Alkaline Phosphatase (ALP); settings: twice daily oral gavage; Week 3
Experimental: This study was conducted to determine the effects of two non-absorbed ASBTi compounds in the ZDF rat model after 3 weeks of treatment.
Animals were acclimatized for 5-7 days after arrival. […] The 2nd set of study was initiated after completion of the 1st. Test compound formulation prepared every other day and stored at 4° C. […] After 3rd week of treatment blood samples were collected by cardiac puncture from fasted animals for blood chemistry analysis: ALAT, ASAT, GGT, Alkaline Phosphatase and total Bile Acids. Tests were performed in contract clinical laboratory (Liver Profile SA320, Antech Diagnostics, Orange Country, Calif.).
Blood was collected by tail vein bleed weekly and after 3 weeks of treatment by cardiopuncture for serum tests. Data for each group is presented as the Mean Value±SEM. Statistically evaluation by t-test: *P<0.05, **P<0.01,***P<0.001 vs. vehicle group.

[2] = tested on: Alanine Aminotransferase (ALAT); assay: Plasma alanine aminotransferase in ZDF rats, week 3; assay type: in vivo; settings: twice daily oral gavage
plasma lipase = assay: Plasma lipase in ZDF rats, week 3; assay type: in vivo; settings: twice daily oral gavage
Hemoglobin A1c (HbA1c) = assay: Baseline-corrected percent HbA1c in ZDF rats; assay type: in vivo; settings: twice daily oral gavage
total serum bile acids = assay: Plasma total serum bile acids in ZDF rats, week 3; assay type: in vivo; settings: twice daily oral gavage
plasma amylase = assay: Plasma amylase in ZDF rats, week 3; assay type: in vivo; settings: twice daily oral gavage
GLP-2 = GLP-2 in plasma of non-fasted ZDF rats, 2 weeks treatment; assay type: in vivo
[3] = 264W94 0.001-10 mg/kg oral gavage twice a day, 2 weeks

Row | SMILES | Plasma bile acid concentrations (plasma bile acid; [3]) | Bile acids in the feces (bile acids in the feces; [3]) | Fecal bile acid concentrations elevated vs vehicle treated rats (bile acids in the feces; 264W94 0.001-10 mg/kg oral gavage twice a day, 24 h feces in second week) | Fecal NEFA (bile acids in the feces; 264W94 oral gavage twice a day, 2 weeks) | ED50 (fecal bile acid elevation) (bile acids in the feces; oral gavage twice a day, 2 weeks) [mg/kg] | Fasting plasma triglycerides (plasma triglycerides) | Plasma alkaline phosphatase (ALP) [1] | Plasma alanine aminotransferase (ALAT) [2] | Plasma lipase (plasma lipase) | Baseline-corrected percent HbA1c (Hemoglobin A1c (HbA1c)) | Plasma total serum bile acids (SBA) (total serum bile acids) | Plasma bile acid levels (plasma bile acid; SC-435 1, 10 or 30 mg/kg, LUM002 0.3, 1, 3, 10 or 30 mg/kg, oral gavage twice a day, end of second week, n=4) | Plasma amylase (plasma amylase) | GLP-2 in plasma (GLP-2)
1 | CCCC[C@]1(CC)CS(=O)(=O)c2cc(OC)c(OC)cc2[C@@H](c2ccccc2)N1 [Compound 264W94] | decreased dose-dependently | dose-dependently increased | up to 6.5 fold | slightly increased | 0.17 | – | – | – | – | – | – | – | – | –
2 | CCCCC1(CCCC)CS(=O)(=O)c2ccc(N(C)C)cc2[C@@H](c2ccc(OCCCC[N+]34CCN(CC3)CC4)cc2)[C@H]1O.CS(=O)(=O)[O-] [SC-435, 1-[4-[4-[(4R,5R)-3,3-dibutyl-7-(dimethylamino)-2,3,4,5-tetrahydro-4-hydroxy-1,1-dioxido-1-benzothiepin-5-yl]phenoxy]butyl]4-aza-1-azoniabicyclo[2.2.2]octane methanesulfonate salt, reference compound] | – | – | – | – | – | statistically significant elevations | significant reductions in ALP | Neither LUM002 nor SC-435 caused statistically significant reductions | statistically significant reductions in plasma lipase at higher doses | significant dose-dependent reductions | statistically significant reductions in SBA | decreased for all doses | Neither LUM002 nor SC-435 caused a statistically significant changes | significant elevations in GLP2 at higher doses
